Series [1] has as its target T1, 5-hydroxytryptamine receptor 2B (Homo sapiens, UniProt P41595). The experiment in a line: Binding affinity to 5-HT2B receptor (unknown origin).
Series [2] can be described thus: Selectivity ratio, […] for 5-HT2B (unknown origin).
The target of series [3] is T1, 5-hydroxytryptamine receptor 2B. Briefly: Displacement of [3H]-LSD from human 5-HT2B receptor assessed as inhibition constant.
A short description of series [4]: Ratio of drug concentration in brain to plasma of C57BL/6 mouse administered intraperitoneally and measured for 0.25 to 24 hrs. The class given is ADME. The following applies: time 0.25-24 hrs, route ip, read-out: BPR.
Series [5] addresses Cytochrome P450 3A4 (Homo sapiens, UniProt P08684). Briefly: Inhibition of CYP3A4 (unknown origin). The class given is ADME.
Series [6] concerns the target Cytochrome P450 2D6 (Homo sapiens, UniProt P10635). The experiment in a line: Inhibition of CYP2D6 (unknown origin). It counts as ADME.
The target in series [7] is Cytochrome P450 2C9 (Homo sapiens, UniProt P11712). The experiment in a line: Inhibition of CYP2C9 (unknown origin). The class given is ADME.
The nature of series [8]: Half life in ip dosed C57BL/6 mouse. The following applies: in vivo. It counts as ADME, organism-based.
In series [9] the target is T2, Cytochrome P450 1A2 (Homo sapiens, UniProt P05177).
T2 sequence (P05177 whole entry): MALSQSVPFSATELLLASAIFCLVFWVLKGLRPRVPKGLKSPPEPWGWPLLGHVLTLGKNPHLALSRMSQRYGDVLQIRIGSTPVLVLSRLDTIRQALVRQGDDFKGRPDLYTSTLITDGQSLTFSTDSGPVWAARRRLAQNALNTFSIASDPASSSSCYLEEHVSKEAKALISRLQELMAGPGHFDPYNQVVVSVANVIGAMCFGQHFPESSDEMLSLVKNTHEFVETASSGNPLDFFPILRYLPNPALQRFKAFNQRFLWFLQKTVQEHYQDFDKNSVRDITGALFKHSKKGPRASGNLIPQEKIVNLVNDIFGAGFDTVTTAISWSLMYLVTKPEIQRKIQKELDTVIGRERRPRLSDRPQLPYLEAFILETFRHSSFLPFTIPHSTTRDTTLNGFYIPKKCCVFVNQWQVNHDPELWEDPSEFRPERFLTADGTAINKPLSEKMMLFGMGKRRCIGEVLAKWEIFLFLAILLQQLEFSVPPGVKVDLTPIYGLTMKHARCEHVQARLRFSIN
The experiment in a line: Inhibition of CYP1A2 (unknown origin). The class given is ADME.

The nature of series [10]: Cmax in ip dosed C57BL/6 mouse. The class given is ADME, organism-based. The arrangement: route ip. The settings on record: in vivo.
In series [11] the target is T1, 5-hydroxytryptamine receptor 2B. Briefly: Agonist activity at 5-HT2B receptor (unknown origin) assessed as stimulation of […] by calcium mobilization assay. The class given is functional. (Calcium assays in cells follow changes in intracellular calcium, usually with a dye or a luminescent sensor.)
Series [12] shares this target. The experiment in a line: Agonist activity at 5-HT2B receptor (unknown origin) assessed as stimulation of intracellular calcium level by calcium mobilization assay. It counts as functional, cell-based.
Series [13] shares this target. Briefly: Agonist activity at 5-HT2B receptor (unknown origin) assessed as stimulation of phospho-inositide hydrolysis by IP hydrolysis assay. It counts as functional.

What is called Ki is the dissociation constant of the complex between target and ligand, obtained from inhibition or displacement. What is called IC50 is the concentration at which inhibition is half-maximal. Low values mean greater potency in that assay, high ones weaker potency in that assay. One may read the half-life as the time in which the quantity being followed falls by half. The low end stands for fast loss, the high end for slow loss. The term Cmax denotes the maximum level reached in the sampled fluid or tissue. The term EC50 denotes the midpoint of the concentration-response curve.

T1 sequence (P41595 whole entry): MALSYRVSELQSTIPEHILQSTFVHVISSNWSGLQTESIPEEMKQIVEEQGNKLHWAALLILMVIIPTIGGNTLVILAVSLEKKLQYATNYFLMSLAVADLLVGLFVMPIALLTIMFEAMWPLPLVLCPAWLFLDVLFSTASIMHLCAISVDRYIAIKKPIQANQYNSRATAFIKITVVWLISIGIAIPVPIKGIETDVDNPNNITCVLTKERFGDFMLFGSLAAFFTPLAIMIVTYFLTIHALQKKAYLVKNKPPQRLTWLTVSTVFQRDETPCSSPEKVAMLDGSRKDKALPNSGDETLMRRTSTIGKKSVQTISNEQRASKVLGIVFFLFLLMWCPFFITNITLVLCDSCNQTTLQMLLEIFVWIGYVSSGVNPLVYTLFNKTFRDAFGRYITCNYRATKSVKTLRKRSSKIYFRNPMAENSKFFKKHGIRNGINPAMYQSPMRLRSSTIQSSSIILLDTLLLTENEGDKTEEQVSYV
Chain of Cytochrome P450 2C9 (P11712 whole entry): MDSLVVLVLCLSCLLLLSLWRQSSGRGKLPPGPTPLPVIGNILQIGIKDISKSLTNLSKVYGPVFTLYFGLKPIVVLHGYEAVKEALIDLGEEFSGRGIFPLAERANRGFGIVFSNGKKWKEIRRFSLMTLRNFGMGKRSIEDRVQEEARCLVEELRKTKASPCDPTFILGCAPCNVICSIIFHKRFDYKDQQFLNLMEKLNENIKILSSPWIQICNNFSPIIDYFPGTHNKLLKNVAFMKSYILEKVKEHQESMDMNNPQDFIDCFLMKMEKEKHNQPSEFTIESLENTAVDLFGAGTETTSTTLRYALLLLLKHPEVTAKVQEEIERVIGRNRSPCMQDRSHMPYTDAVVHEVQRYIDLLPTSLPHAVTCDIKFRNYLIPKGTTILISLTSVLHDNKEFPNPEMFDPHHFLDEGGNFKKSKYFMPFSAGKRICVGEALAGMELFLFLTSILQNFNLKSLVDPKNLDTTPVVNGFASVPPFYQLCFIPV
Chain of Cytochrome P450 3A4 (P08684 whole entry): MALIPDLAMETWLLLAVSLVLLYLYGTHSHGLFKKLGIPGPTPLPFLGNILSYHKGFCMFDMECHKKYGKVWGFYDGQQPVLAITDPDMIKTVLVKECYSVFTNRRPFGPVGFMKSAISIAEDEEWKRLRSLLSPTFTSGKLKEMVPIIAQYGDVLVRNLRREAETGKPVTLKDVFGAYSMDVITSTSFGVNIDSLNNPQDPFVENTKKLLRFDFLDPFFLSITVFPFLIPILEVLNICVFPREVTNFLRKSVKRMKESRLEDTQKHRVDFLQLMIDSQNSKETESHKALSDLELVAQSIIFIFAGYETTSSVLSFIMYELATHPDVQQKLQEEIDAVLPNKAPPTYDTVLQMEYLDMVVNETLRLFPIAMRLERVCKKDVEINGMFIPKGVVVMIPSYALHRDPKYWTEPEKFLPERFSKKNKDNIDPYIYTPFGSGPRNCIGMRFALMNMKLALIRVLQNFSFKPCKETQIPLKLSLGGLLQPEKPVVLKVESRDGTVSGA
Chain of Cytochrome P450 2D6 (P10635 whole entry): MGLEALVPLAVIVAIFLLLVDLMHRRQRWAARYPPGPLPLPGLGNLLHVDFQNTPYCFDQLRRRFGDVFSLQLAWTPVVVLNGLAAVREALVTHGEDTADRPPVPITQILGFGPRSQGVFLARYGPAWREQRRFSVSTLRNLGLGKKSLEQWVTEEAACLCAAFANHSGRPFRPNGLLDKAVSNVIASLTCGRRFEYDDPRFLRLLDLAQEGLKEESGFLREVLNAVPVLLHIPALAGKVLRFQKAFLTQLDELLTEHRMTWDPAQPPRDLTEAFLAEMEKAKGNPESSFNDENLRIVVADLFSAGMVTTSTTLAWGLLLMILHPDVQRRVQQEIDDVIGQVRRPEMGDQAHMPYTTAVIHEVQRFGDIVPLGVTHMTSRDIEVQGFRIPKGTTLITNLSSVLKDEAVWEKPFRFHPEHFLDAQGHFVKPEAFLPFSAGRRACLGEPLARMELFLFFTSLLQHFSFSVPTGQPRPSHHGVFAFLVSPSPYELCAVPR

As for `Cc1cc(NC(=O)Nc2ccc3c(ccn3C)c2)sn1`, in [1], the inhibition constant (Ki) was 0.0112 µM. In series [2], the Selectivity ratio is over 135.

As to `O=C1[C@@H]2[C@@H]3C[C@@H](C[C@H]3O)[C@@H]2C(=O)N1C[C@@H]1CCCC[C@H]1CN1CCN(c2nsc3ccccc23)CC1`, the Ki in series [3] amounted to 0.024 µM.

Consider `Cn1ccc2cc(-n3c(=O)[nH]c4sc5c(c4c3=O)CCCC5)ccc21`, for which the Kp in [4] amounted to 0.01. The IC50 in series [5], in [6], in [7] and in [9] was over 30 µM each time. Further, the half-life in [8] was 42 min. The compound further came in with a Cmax in [10] of 43 µg/mL.

Consider `C[C@H](N)Cc1cccc(C(F)(F)F)c1` [NORDEXFENFLURAMINE], for which the 50% effective concentration (EC50) in series [11], in series [12] and in [13] was 0.023 µM throughout.

Source of the values: ChEMBL document CHEMBL5360673, “2B Determined: The Future of the Serotonin Receptor 2B in Drug Discovery” (J Med Chem, 2023).
